Data on 2 molecules can be found in patent US7772264B2, “Salt and polymorphs of a DPPIV inhibitor” (Hoffmann-La Roche Inc., priority 2005, dated 2010).

One series addresses T1, human DPP-IV (Homo sapiens, UniProt P27487).
T1 construct: made in house; host or cells: Pichia pastoris (secreted, purified from the culture medium)
The series is described as follows: DPP-IV activity assay (fluorogenic / colorimetric). Conditions: natural human DPP-IV from plasma pool or recombinant human DPP-IV; 37° C., pH 7.8. It counts as biochemical. The protocol: Activity of DPP-IV inhibitors are tested with natural human DPP-IV derived from a human plasma pool or with recombinant human DPP-IV. Human citrate plasma from different donors is pooled, filtered through a 0.2 micron membrane under sterile conditions and aliquots of 1 mL are shock frozen and stored at −120° C. until used. In the colorimetric DPP-IV assay 5 to 10 μL human plasma and in the fluorometric assay 1.0 μL of human plasma in a total assay volume of 100 μL is used as an enzyme source. The cDNA of the human DPP-IV sequence of amino acid 31- to 766, restricted for the N-terminus and the transmembrane domain, is cloned into pichia pastoris. […]
In the calorimetric assay H-Ala-Pro-pNA.HCl (Bachem L-1115) is used as a substrate. […] Fluorescence is detected in a Perkin Elmer Luminescence Spectrometer LS 50B at an excitation wavelength of 400 nm and an emission wavelength of 505 nm continuously every 15 seconds for 10 to 30 minutes. Initial rate constants are calculated by best fit linear regression. The absorption of pNA liberated from the calorimetric substrate is detected in a Packard SpectraCount at […] continuously every 2 minutes for 30 to 120 minutes. Initial rate constants are calculated by best fit linear regression. […]
IC50 determinations of test compounds are calculated by non-linear best fit regression of the DPP-IV inhibition of at least 5 different compound concentrations. […]

Series [1] can be described thus: Hygroscopicity observation (water uptake and release of the crystal form). In kind it is physicochemical. Particulars: solid crystal form; XRPD and IR vary with humidity of the sample. The text has this: It has been observed that the polymorph B is hygroscopic and that the X-ray powder diffraction pattern and the IR-spectrum of polymorph B can vary, depending on the humidity of the analyzed sample. Water uptake and release, respectively, result in systematic shifts of some peak positions in the X-ray powder diffraction pattern. The crystal form B is characterized by a set of peaks, as described above, that are not susceptible to peak shifts in a range larger than 0.2 degrees in 2-theta. Samples of polymorph B, which have been dried, e.g. by elevated temperature or in a dry atmosphere, show the same X-ray powder diffraction pattern. In the IR spectrum of polymorph B, variations of humidity of the sample are mainly observed in following regions: 3700-3300, 1250-1150, 1045-1000 970-955, 900-850 cm^−1. However, changes of humidity can also have an influence on the position of the peaks outside these ranges.

SMILES strings stand for the structures. Structures can show the parent of a compound that is named as a salt.

As usually defined, the IC50 is the concentration at which inhibition is half-maximal. Usually Ki stands for a dissociation constant, usually derived from enzyme kinetics or from competition with a known ligand.

T1 sequence (P27487 31-766): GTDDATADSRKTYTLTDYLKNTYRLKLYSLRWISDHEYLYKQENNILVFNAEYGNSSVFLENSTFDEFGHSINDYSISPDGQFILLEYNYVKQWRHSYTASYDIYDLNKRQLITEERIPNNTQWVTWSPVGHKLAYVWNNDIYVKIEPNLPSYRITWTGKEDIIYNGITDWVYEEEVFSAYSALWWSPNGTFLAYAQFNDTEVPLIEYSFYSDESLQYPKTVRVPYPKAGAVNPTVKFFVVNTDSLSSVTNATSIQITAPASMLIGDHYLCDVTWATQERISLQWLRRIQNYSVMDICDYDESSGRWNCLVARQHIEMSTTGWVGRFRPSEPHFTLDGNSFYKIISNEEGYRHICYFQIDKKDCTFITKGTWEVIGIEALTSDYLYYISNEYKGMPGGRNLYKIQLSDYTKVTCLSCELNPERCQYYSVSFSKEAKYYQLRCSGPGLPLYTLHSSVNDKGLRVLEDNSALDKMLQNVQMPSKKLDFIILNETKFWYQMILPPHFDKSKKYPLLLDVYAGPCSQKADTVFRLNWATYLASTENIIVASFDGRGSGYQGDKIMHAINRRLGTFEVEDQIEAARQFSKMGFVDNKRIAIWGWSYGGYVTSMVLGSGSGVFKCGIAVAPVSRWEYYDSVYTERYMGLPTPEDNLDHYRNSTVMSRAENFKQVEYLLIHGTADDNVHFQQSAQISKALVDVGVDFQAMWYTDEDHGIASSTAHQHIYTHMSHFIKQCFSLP

`Cc1oc(-c2ccccc2)nc1CCNCC(=O)N1CCC[C@H]1C#N` [(S)-1-{[2-(5-Methyl-2-phenyl-oxazol-4-yl)-ethylamino]-acetyl}-pyrrolidine-2-carbonitrile mesylate]: at human DPP-IV, the IC50 was 75 nM and the Ki is 80 nM.

Take `CS(=O)(=O)O.Cc1oc(-c2ccccc2)nc1CCNCC(=O)N1CCC[C@H]1C#N` [polymorph B, (S)-1-{[2-(5-Methyl-2-phenyl-oxazol-4-yl)-ethylamino]-acetyl}-pyrrolidine-2-carbonitrile mesylate]: in series [1], the hygroscopicity result was “hygroscopic”.
